# ChEMBL document CHEMBL1156829 (Proc Natl Acad Sci U S A, 2008)
# Tests used:
# [1] = tested on: Plasmodium falciparum; test: NOVARTIS: Inhibition of Plasmodium falciparum 3D7 (drug-susceptible) proliferation in erythrocyte-based infection assay; format: functional, organism-based; settings: Plasmodium falciparum, 3D7
# [2] = NOVARTIS: Cytotoxicity against human hepatocellular carcinoma cell line (Huh7); format: toxicity, cell-based, Huh-7; settings: Huh7 cells (hepatocellular carcinoma cell line)
# [3] = tested on: Plasmodium falciparum; test: NOVARTIS: Inhibition of Plasmodium falciparum W2 (drug-resistant) proliferation in erythrocyte-based infection assay; format: functional, organism-based; settings: Plasmodium falciparum, W2; read-out: EC50
SMILES,EC50 [1],CC50 [2],EC50 [3]
CN1C=CC=CC1=CC=C1C=Nc2ccccc21,236 nM,20900 nM,232 nM
COc1cccc(/C=C2\SC(=Nc3ccccc3)NC2=O)c1OC,521 nM,> 100000 nM,1100 nM
CCOC(=O)c1cnc2ccc(C(C)C)cc2c1O,1150 nM,> 100000 nM,1140 nM
NN1C(=O)NC(=O)C1Nc1cccc([N+](=O)[O-])c1 (stereo not given),976 nM,> 12700 nM,139 nM
COc1cccc(C(=O)NC(c2ccccc2OC)c2cc(Cl)c3cccnc3c2O)c1 (stereo not given),1200 nM,> 100000 nM,1150 nM
COc1cc(OC)cc(C(=O)Nc2cc(C(=O)N3CCC(Cc4ccccc4)CC3)ccc2N2CC3CC(C2)c2cccc(=O)n2C3)c1 (stereo not given),1870 nM,50300 nM,548 nM
O=C1CSc2ccccc2N1,> 10600 nM,> 100000 nM,1080 nM
O=C(O)c1cccc(NC(=O)c2ccc(N3C(=O)c4ccc(C(=O)Nc5cccc(C(=O)O)c5)cc4C3=O)cc2)c1,> 12500 nM,> 100000 nM,1140 nM
CCC(CO)NCC(O)Cn1c2ccc(Br)cc2c2cc(Br)ccc21 (stereo not given),526 nM,11200 nM,126 nM
CN1CCC(NCCc2ccc(Cl)cc2)CC1,909 nM,18900 nM,210 nM
OC(CNC1CCCCC1)Cn1c2ccccc2c2ccccc21 (stereo not given),483 nM,18000 nM,198 nM
Cn1nc(C(F)(F)F)c(-c2ccc(F)cc2)c1NC(=O)Nc1ccc(F)cc1,241 nM,23600 nM,254 nM
O=C(NC1CC1)c1ccc(N2CCC(Cc3ccccc3)CC2)c([N+](=O)[O-])c1,212 nM,53700 nM,619 nM
COc1ccc(C=NNc2cc(C)nc3ccccc23)cc1,228 nM,18900 nM,207 nM
CC1CCN(S(=O)(=O)c2ccc(C(=O)NCc3ccco3)cc2)CC1,894 nM,> 100000 nM,1090 nM
O=C(C1CC1)N1CCc2cc(Br)cc(S(=O)(=O)N3CCCC3)c21,929 nM,> 100000 nM,1120 nM
CCc1ccc(NC(=O)COC(=O)c2cccs2)cc1,4640 nM,> 100000 nM,1110 nM
Fc1ccc(CCNc2ncnc3c2[nH]c2ccccc23)cc1,257 nM,12000 nM,133 nM
CC(C)(C)C(=O)NCCNc1ccc([N+](=O)[O-])cc1C(F)(F)F,2260 nM,> 100000 nM,1110 nM
CCCCCCCCCCOC(=O)Cn1c(C)[n+](C)c2ccccc21,> 12500 nM,58100 nM,644 nM
O=C(NCCCN1CCOCC1)c1c[nH]c2ccc(S(=O)(=O)N3CCc4ccccc43)cc2c1=O,610 nM,> 100000 nM,1110 nM
CC(=O)N(C1=C(N2CCCC2)C(=O)c2ccccc2C1=O)c1cccc(F)c1,406 nM,29000 nM,323 nM
CCC(=O)Nc1ccc2nc(SCC(=O)Nc3ccc(C(C)=O)cc3)sc2c1,> 12500 nM,> 100000 nM,1110 nM
COCCN(Cc1cc2ccc(F)cc2nc1N1CCCCCC1)C(=O)c1ccoc1,5200 nM,> 100000 nM,1110 nM

SMILES,EC50 [1],CC50 [2],EC50 [3]
COc1ccc(C2C(C(C)=O)=C(O)C(=O)N2CCCn2ccnc2)c(OC)c1 (stereo not given),4480 nM,> 100000 nM,1110 nM
Nc1nonc1-n1nnc(C(=O)NN=Cc2cc(Br)cs2)c1-c1ccccc1,692 nM,> 100000 nM,1100 nM
COc1ccc(S(=O)(=O)N2CCC(c3nnc(-c4ccccc4OC)o3)CC2)cc1,2300 nM,> 100000 nM,1100 nM
CCOC(=O)N1CCC(n2c(SCC(=O)N3CCCCCC3)nc3ccccc3c2=O)CC1,7340 nM,> 100000 nM,1090 nM
CCCCc1ccc(C(=O)Oc2ccccc2-c2nc3cc(C)ccn3c2NC(C)(C)CC(C)(C)C)cc1,616 nM,> 10000 nM,107 nM
Nc1ccc(C(=O)NN=Cc2cccc([N+](=O)[O-])c2)cc1,298 nM,> 10000 nM,112 nM
CCC(C)(C)n1nnnc1C(c1cc2cc(C)cc(C)c2[nH]c1=O)N1CCN(c2ccc(O)cc2)CC1 (stereo not given),2440 nM,> 100000 nM,1070 nM
Fc1ccc(-c2c[n+](-c3ccccc3)c3n2CCS3)cc1,764 nM,> 100000 nM,1070 nM
CCOC(=O)c1c(C)n(-c2ccccc2)c2ccc(OC(=O)c3ccco3)cc12,607 nM,> 100000 nM,1140 nM
CC(C)CN1C(=O)c2ccccc2C(C(=O)Nc2ccc(CN3CCC(C)CC3)cc2)C1c1cccs1 (stereo not given),2050 nM,> 100000 nM,1130 nM
COc1ccc(CN2CCC(C(=O)Nc3ccc(Oc4cccnc4)cc3)CC2)cc1,2220 nM,59400 nM,640 nM
CC(=O)N(C1=C(N2CCOCC2)C(=O)c2ccccc2C1=O)c1ccc(I)cc1,73.7 nM,10000 nM,108 nM
Cc1cccc(-c2cc(C(=O)NC3CCN(Cc4ccccc4)CC3)cc(-n3cnnn3)c2)c1,372 nM,50100 nM,570 nM
Cc1cccc(OC(C)C(=O)N2CCc3ccccc32)c1 (stereo not given),3480 nM,> 100000 nM,1140 nM
Cc1n(N)c2ccccc2[n+]1CC(=O)c1ccc([N+](=O)[O-])cc1,1950 nM,> 100000 nM,1140 nM
COc1ccccc1Nc1nc(NCc2ccccc2)c2ccccc2n1,312 nM,19600 nM,212 nM
Cc1ccc(C#N)c(SCc2nnc(-c3ccc(Cl)cc3)o2)n1,> 1250 nM,> 10000 nM,108 nM
Sc1nnc(-c2ccncc2)n1CCc1ccccc1,> 7490 nM,> 100000 nM,1080 nM
c1ccc(CCNC2CCN(Cc3ccccc3)CC2)cc1,1470 nM,43500 nM,500 nM
O=[N+]([O-])c1cc(Br)c(Nc2ccccc2)c([N+](=O)[O-])c1,167 nM,6600 nM,75.8 nM
COc1cc2ccccc2cc1C(=O)NCCOC12CC3CC(CC(C3)C1)C2,3500 nM,> 100000 nM,1140 nM
Cc1ccc(-c2cc(C(=O)OCC(=O)c3cccc([N+](=O)[O-])c3)c3cc(C)ccc3n2)cc1,> 12500 nM,> 100000 nM,1090 nM
CCC(C)(C)c1ccc(OCC(O)CNCc2ccccc2)c(C(C)(C)CC)c1 (stereo not given),361 nM,9200 nM,100 nM
O=C1C2C(C(=O)N1c1cccc3ccccc13)C1C=CC2C12CC2 (stereo not given),6590 nM,> 100000 nM,1090 nM

SMILES,EC50 [1],CC50 [2],EC50 [3]
Cc1ccccc1Cn1c(C)c[n+]2ccsc12,1280 nM,> 10000 nM,113 nM
COc1ccc(C2CC(c3cccs3)=NN2C(=O)CSc2nnc(CNC(=O)c3cccs3)n2-c2cc(C)ccc2C)cc1 (stereo not given),> 8550 nM,> 100000 nM,1140 nM
O=C(c1ccccc1)C1NC1c1ccc(Br)cc1 (stereo not given),989 nM,> 100000 nM,1120 nM
O=C(NC1CC1)C1CCN(c2cccc3c2C(=O)N(Cc2cccc(C(F)(F)F)c2)C3=O)CC1,2160 nM,> 100000 nM,1110 nM
CCCc1c(CC)c(=N)c2ccccc2n1C,762 nM,> 100000 nM,1140 nM
CCCCN(CCCC)S(=O)(=O)c1cc(Br)cc2c1N(C(C)=O)CC2,3290 nM,> 100000 nM,1090 nM
O=C1CC(c2ccccc2)CC2=C1C(c1ccccc1[N+](=O)[O-])Nc1ccccc1N2 (stereo not given),3470 nM,> 100000 nM,1110 nM
COc1ccccc1N1C(=N)SC(=Cc2ccc(OCc3ccccc3F)cc2)C1=O,422 nM,> 100000 nM,1080 nM
COc1ccccc1C(=O)NC1CCN(CC(O)CN(Cc2ccccc2)S(=O)(=O)c2ccccc2)C1 (stereo not given),215 nM,> 10000 nM,115 nM
CC(=O)Nc1ccc2c(c1)C(=O)N(C(C(=O)NCC(=O)O)C1CCCCC1)[C@@H](CCC(=O)O)C(=O)N2 (stereo not given in full),> 418 nM,> 10000 nM,109 nM
CC1=C(C(=O)OC(C)C)C(c2ccc([N+](=O)[O-])cc2)C2=C(CCCC2=O)N1 (stereo not given),6230 nM,> 100000 nM,1140 nM
O=C(COc1ccc(Cl)cc1)N1CCCn2cccc2C1c1ccc(Cl)cc1 (stereo not given),631 nM,> 10000 nM,108 nM
CCOC(=O)c1cnn(-c2ccnc3cc(Cl)ccc23)c1CNC(C)c1ccco1 (stereo not given),795 nM,38900 nM,448 nM
CCc1ccc(NC(=O)c2sc3nc4c(c(-c5ccco5)c3c2N)CCCC4)cc1,1820 nM,> 100000 nM,1070 nM
COc1ccc(C2C(C(=O)Nc3cccc(C(F)(F)F)c3)c3ccccc3C(=O)N2C2CCCCC2)cc1 (stereo not given),1830 nM,> 100000 nM,1130 nM
CC(C)(C)c1ccc(C(=O)C[n+]2cc(-c3ccccc3)n3c2CCC3)cc1,1140 nM,43000 nM,470 nM
Cc1cccc(CCNc2cc(C)nc3ncnn23)c1,841 nM,> 100000 nM,1080 nM
S=C(NCc1ccco1)NN=CC=NNC(=S)NCc1ccco1,121 nM,> 10000 nM,113 nM
NCC(c1ccc(F)cc1)c1ccc(F)cc1,> 345 nM,> 9210 nM,99.8 nM
CC(C)c1ccc(NC(=O)/C=C/c2ccccc2Cl)cc1,186 nM,> 10000 nM,109 nM
CN1CCc2c(sc3c2C(=O)NC(c2ccc(O)cc2)N3)C1 (stereo not given),755 nM,33600 nM,378 nM
CCOC(=O)c1sc(NC(=O)C(C)Sc2nnc(CNC(=O)c3cccc(F)c3)n2-c2cccc(C)c2)c(C(=O)OCC)c1C (stereo not given),> 12500 nM,> 100000 nM,1100 nM
